Laboratory results reported in PubChem BioAssay (NCI).
Where “and” joins values, the source holds several entries; their conditions need not be identical. Equal entries are not always repeated.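 A five-concentration, 48-hour dose response in 96-well plates underlies each endpoint, interpolated linearly between surrounding concentrations. GI50 is the concentration that inhibits growth by half. TGI denotes the concentration required for complete inhibition of growth.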

Experiments:
Test in all cases: NCI-60 cell line screen, 48 h
[1] = tested on: MOLT-4 leukemia
[2] = tested on: SK-OV-3 ovarian
[3] = tested on: SK-MEL-28 melanoma
[4] = tested on: BT-549 breast
[5] = tested on: COLO 205 colon
[6] = tested on: OVCAR-8 ovarian
[7] = tested on: RPMI-8226 leukemia
[8] = tested on: SF-295 CNS
[9] = tested on: DU-145 prostate
[10] = tested on: UACC-62 melanoma
[11] = tested on: ACHN renal
[12] = tested on: TK-10 renal
[13] = tested on: M14 melanoma
[14] = tested on: EKVX NSCLC
[15] = tested on: NCI-H460 lung
[16] = tested on: SK-MEL-2 melanoma
[17] = tested on: CAKI-1 renal
[18] = tested on: SF-539 CNS
[19] = tested on: SN12C renal
[20] = tested on: NCI-H23 lung
[21] = tested on: UACC-257 melanoma
[22] = tested on: SNB-19 CNS
[23] = tested on: MDA-MB-231 breast
[24] = tested on: K-562 leukemia
[25] = tested on: RXF 393 renal
[26] = tested on: HOP-92 NSCLC
[27] = tested on: OVCAR-5 ovarian
[28] = tested on: MCF7 breast
[29] = tested on: HS 578T breast
[30] = tested on: 786-0 renal
[31] = tested on: OVCAR-4 ovarian
[32] = tested on: MDA-MB-435
[33] = tested on: PC-3 prostate
[34] = tested on: HCC-2998 colon
[35] = tested on: SW-620 colon
[36] = tested on: A498 renal
[37] = tested on: IGROV1 ovarian
[38] = tested on: NCI/ADR-RES ovarian
[39] = tested on: HT29 colon
[40] = tested on: SF-268 CNS
[41] = tested on: SR leukemia
[42] = tested on: CCRF-CEM leukemia
[43] = tested on: U251 CNS
[44] = tested on: NCI-H226 lung
[45] = tested on: MDA-N
[46] = tested on: OVCAR-3 ovarian
[47] = tested on: SNB-75 CNS
[48] = tested on: NCI-H522 lung
[49] = tested on: UO-31 renal
[50] = tested on: KM12 colon
[51] = tested on: HL-60(TB) leukemia
[52] = tested on: T-47D breast
[53] = tested on: MALME-3M melanoma
[54] = tested on: HCT-15 colon
[55] = tested on: HCT-116 colon
[56] = tested on: A549 NSCLC
[57] = tested on: SK-MEL-5 melanoma
[58] = tested on: LOX IMVI melanoma
[59] = tested on: HOP-62 NSCLC

## Nc1nnc(-c2ccco2)c(-c2ccco2)n1
[1]
  TGI: > 100 µM
[2]
  TGI: > 100 µM
[3]
  TGI: > 100 µM
[4]
  TGI: > 100 µM
[5]
  TGI: > 100 µM
[6]
  TGI: > 100 µM
[7]
  TGI: > 100 µM
[8]
  TGI: > 100 µM
[9]
  TGI: > 100 µM
[10]
  TGI: > 100 µM
[11]
  TGI: > 100 µM
[12]
  TGI: > 100 µM
[13]
  TGI: > 100 µM
[14]
  TGI: > 100 µM
[15]
  TGI: > 100 µM
[16]
  TGI: > 100 µM
[17]
  TGI: > 100 µM
[18]
  TGI: > 100 µM
[19]
  TGI: > 100 µM
[20]
  TGI: > 100 µM
[21]
  TGI: > 100 µM
[22]
  TGI: > 100 µM
[23]
  TGI: > 100 µM
[24]
  TGI: > 100 µM
[25]
  TGI: > 100 µM
[26]
  TGI: > 100 µM
[27]
  TGI: > 100 µM
[28]
  TGI: > 100 µM
[29]
  TGI: > 100 µM
[30]
  TGI: > 100 µM
[31]
  TGI: > 100 µM
[32]
  TGI: > 100 µM
[33]
  TGI: > 100 µM
[34]
  TGI: > 100 µM
[35]
  TGI: > 100 µM
[36]
  TGI: > 100 µM
[37]
  TGI: > 100 µM
[38]
  TGI: > 100 µM
[39]
  TGI: > 100 µM
[40]
  TGI: > 100 µM
[41]
  TGI: > 100 µM
[42]
  TGI: > 100 µM
[43]
  TGI: > 100 µM
[44]
  TGI: > 100 µM
[45]
  TGI: > 100 µM
[46]
  TGI: > 100 µM
[47]
  TGI: > 100 µM
[48]
  TGI: > 100 µM
[49]
  TGI: > 100 µM
[50]
  TGI: > 100 µM
[51]
  TGI: > 100 µM
[52]
  TGI: > 100 µM
[53]
  TGI: > 100 µM
[54]
  TGI: > 100 µM
[55]
  TGI: > 100 µM
[56]
  TGI: > 100 µM
[57]
  TGI: > 100 µM

## Cc1cc(C)c(C)c(-n2[nH]c(=O)n(C)c2=O)c1C
[1]
  TGI: > 100 µM
[2]
  TGI: > 100 µM
[3]
  TGI: > 100 µM
[4]
  TGI: > 100 µM
[5]
  TGI: > 100 µM
[6]
  TGI: > 100 µM
[7]
  TGI: > 100 µM
[8]
  TGI: > 100 µM
[9]
  TGI: > 100 µM
[10]
  TGI: > 100 µM
[11]
  TGI: > 100 µM
[12]
  TGI: > 100 µM
[13]
  TGI: > 100 µM
[14]
  TGI: > 100 µM
[15]
  TGI: > 100 µM
[16]
  TGI: > 100 µM
[17]
  TGI: > 100 µM
[18]
  TGI: > 100 µM
[19]
  TGI: > 100 µM
[20]
  TGI: > 100 µM
[21]
  TGI: > 100 µM
[22]
  TGI: > 100 µM
[23]
  TGI: > 100 µM
[24]
  TGI: > 100 µM
[26]
  TGI: > 100 µM
[27]
  TGI: > 100 µM
[28]
  TGI: > 100 µM
[29]
  TGI: > 100 µM
[30]
  TGI: > 100 µM
[32]
  TGI: > 100 µM
[33]
  TGI: > 100 µM
[35]
  TGI: > 100 µM
[36]
  TGI: > 100 µM
[37]
  TGI: > 100 µM
[58]
  TGI: > 100 µM
[38]
  TGI: > 100 µM
[39]
  TGI: > 100 µM
[40]
  TGI: > 100 µM
[41]
  TGI: > 100 µM
[42]
  TGI: > 100 µM
[43]
  TGI: > 100 µM
[44]
  TGI: > 100 µM
[45]
  TGI: > 100 µM
[46]
  TGI: > 100 µM
[59]
  TGI: > 100 µM
[49]
  TGI: > 100 µM
[50]
  TGI: > 100 µM
[51]
  TGI: > 100 µM
[52]
  TGI: > 100 µM
[54]
  TGI: > 100 µM
[55]
  TGI: > 100 µM
[56]
  TGI: > 100 µM
[57]
  TGI: > 100 µM

## COc1ccc(-c2c(C#N)c(S)n(C3OC(CO)C(O)C(O)C3O)c(=O)c2C#N)cc1 (centres undefined)
[1]
  TGI: > 100 µM
[2]
  TGI: > 100 µM
[3]
  TGI: > 100 µM
[4]
  TGI: > 100 µM
[6]
  TGI: > 100 µM
[7]
  TGI: > 100 µM
[8]
  TGI: > 100 µM
[9]
  TGI: > 100 µM
[10]
  TGI: > 100 µM
[11]
  TGI: > 100 µM
[12]
  TGI: > 100 µM
[13]
  TGI: > 100 µM
[15]
  TGI: > 100 µM
[16]
  TGI: > 100 µM
[17]
  TGI: > 100 µM
[18]
  TGI: > 100 µM
[19]
  TGI: > 100 µM
[20]
  TGI: > 100 µM
[21]
  TGI: > 100 µM
[22]
  TGI: > 100 µM
[23]
  TGI: > 100 µM
[24]
  TGI: > 100 µM
[25]
  TGI: > 100 µM
[27]
  TGI: > 100 µM
[28]
  TGI: > 100 µM
[29]
  GI50: 37.3 µM and > 100 µM
  TGI: > 100 µM
[30]
  TGI: > 100 µM
[32]
  TGI: > 100 µM
[33]
  TGI: > 100 µM
[34]
  TGI: > 100 µM
[35]
  TGI: > 100 µM
[36]
  TGI: > 100 µM
[37]
  TGI: > 100 µM
[58]
  TGI: > 100 µM
[38]
  TGI: > 100 µM
[39]
  TGI: > 100 µM
[40]
  TGI: > 100 µM
[41]
  TGI: > 100 µM
[42]
  TGI: > 100 µM
[44]
  TGI: > 100 µM
[45]
  TGI: > 100 µM
[46]
  TGI: > 100 µM
[47]
  TGI: > 100 µM
[59]
  TGI: > 100 µM
[48]
  TGI: > 100 µM
[49]
  TGI: > 100 µM
[50]
  TGI: > 100 µM
[51]
  TGI: > 100 µM
[52]
  TGI: > 100 µM
[53]
  TGI: > 100 µM
[54]
  TGI: > 100 µM
[56]
  TGI: > 100 µM
[57]
  TGI: > 100 µM
